Patent US20150202179A1, “FATTY ACID DERIVATIVES FOR USE IN A METHOD OF TREATING DEPRESSION AND ASSOCIATED CONDITIONS” (YISSUM RESEARCH DEVELOPMENT COMPANY OF THE HEBREW …, priority 2012, published 2015)
“Also recorded” adds a separate entry of the source.

Key:
[1] = Weight and food consumption in Sabra mice; format: in vivo
Description: 140 Female Sabra Mice 12 weeks old are divided to […] 10 mice in each group with equal weight. Mice are administered I.P. with either saline or 1 mg/kg Fluoxetine (PROZAC), compound 1, 4, 5, 7, 10, 11, 12, 13, 14, 15, 19, 26 for a 4 weeks period. On day 30 and on, mice were tested by the following behavioral tests. […]

[2] = Eight Arm Maze Test, separated BALB/c mice; format: in vivo; settings: compounds 1 mg/kg i.p., imipramine 10 mg/kg i.p.; day 34-38; in relation to vehicle (p<0.05)
Description: 2 month old female BALB/c mice 10 mice per group were separated (each mouse in a different cage) for 9 days (a model for depression). On days 7, 8, 9, 34-40 days mice were administered with either vehicle or compounds X, 12 and 15 (1 mg/kg i.p.) or imipramine 10 mg/kg (anti-depressant) i.p. and tested in the Eight Arm Maze from day 34-38.

serotonin (5HT) levels = assay: Serotonin (5HT) determination in brain tissue by HPLC with electrochemical detection; format: in vivo, mice; settings: for 5HT: ng/g wet tissue +/− SEM; for 5HT levels in the hippocampus vs. control / 5HT levels in the hypothalamus vs. control: result in words
Description: (§1) Solution of DHBA as internal standard in the concentration of: 1 μg/ml in 0.1M perchloric acid, were prepared. Standard solutions of NE and 5HT in the concentration of 1-0.1 μg/ml in 0.1M perchloric acid were prepared.
(§2) Tissues (hypothalamus and hippocampus) obtained from 6-8 mice were dissected on ice surface and kept at −80 C. Hypothalamus (HT) or hippocampus (HC) from 1 mice were weighted (weight of HT −10-20 mg, HC 30-40 mg) and placed in eppendorf micro-centrifuge tube, 1.5 ml. To each tube was added 120-160 μl of ice cold solution of Perchloric acid and DHBA, homogenized in ice bath on Sonics vibra cell, 3×20 sec., 0.4 watts and centrifuged at 14,000×g at 4° C. 10 min. Supernatant gained was stored in ice before analysis.
(§3) The HPLC system consisted of Jasco PU-980 pump, Jasco AS-950-10 autosampler cooled at 4° C., H3 ODS-125A 3 μm 125 mm×4.6 mm i.d. analytical column (Hichrom, UK) were used. Electrochemical detector Coulochem ESA 5100A with analytical cell model 5011 was used for control detector voltage and record the current. Working electrode was set at potential +350 mV. Control and data collection/processing were handled through Borwin chromatography software.
(§4) The mobile phase composition: A stock buffer was prepared as follows: 20 mM sodium dihydrogenorthophosphate, EDTA 3 mg/l, 1-heptanesulfonic acid 1 g/l were dissolved in 1 liter deionized distilled water and buffered to pH 3.7 using concentrated phosphoric acid. To prepare the mobile phase buffer was mixed with acetonitrile (Baker HPLC analyzed) in the ratio 85:15 (v/v), filtered through a 0.2 μm membrane filter and degassed under vacuum after mixing. Mobile phase flow rate 1 ml/min. Injection volume 20 μl, retention time for DHBA 4.2 min., norepinephrine—3.1 min., 5HT 8.6 min. For calibration curve 1 ug/ml solution of DHBA together with 1.0-0.1 μg/ml solutions of 5HT and NE were used. The ratio between 5HT or NE and DHBA used to calculate the level of 5HT and NE in the sample. Date are given in ng/g wet tissue +/−SEM.

[3] = Neurological score measured by the NSS method; format: in vivo, BALB/c mice; settings: 1 mg/kg i.p.
[4] = Weight and food consumption in OB/OB mice which lack the leptin gene; format: in vivo
Description: Thus the compounds of the invention can be used to treat conditions that are mediated by the enhancement of leptin levels. In obesity there is high leptin level however the leptin receptors are not responding. High CNS leptin level has anti-depression effect however, if there is tolerance there is no anti depression effect.

[5] = Forced Swim Test (FST), separated BALB/c mice; format: in vivo; settings: compounds 1 mg/kg i.p., imipramine 10 mg/kg i.p.; day 8; in relation to vehicle
Description: Forced swim test (FST): The animal is placed in a circular, transparent, plexiglass tank measuring 21 cm in diameter and 46 cm in height containing water 15 cm high, maintained at 23-25° C. […] Also measured is the latency period, the time elapsing, for each animal from immersion in the water tank until the first occurrence of immobility. Since climbing activity is minimal in mice, […].
50, 2 month old female BALB/c mice, 10 mice per group, on ad libitum diet were separated (each mouse in a different cage) for 9 days (Separation Stress, a model for depression). On the 7, 8, 9, 34-40 days mice were administered with either vehicle or compounds x, 12 and 15 (1 mg/kg i.p.) or imipramine 10 mg/kg (antidepressant) i.p. and tested in the forced swim test (FST) on day 8.

[6] = Novelty Suppressed Feeding Test (NSFT), separated BALB/c mice; format: in vivo; settings: compounds 1 mg/kg i.p., day 9; for food intake in NSFT: in relation to vehicle and more than imipramine 10 mg/kg; for motor activity in NSFT: resembled imipramine 10 mg/kg
Description: (§5) Novelty suppressed feeding test (NSFT): After the last treatment injection, all food is removed from the cage for 24 hours (water available ad libitum). At the end of this time, the animal is introduced into a 50×50×20 (height) cm wooden arena the floor of which is marked with equal rectangles of 10×10 cm. A pellet of food is placed on an elevated surface in the center of the arena. The time elapsing from the introduction of the animal into the arena until it commences eating (latency to feed) is recorded. The animal is removed from the arena immediately after it begins to eat or after not doing so for 5 min. During the test, the number of lines crossed by the animal is counted as a measure of motor activity, and calibrated for 5 min if the animal started eating before that. After the test, the animal is immediately transferred to its home cage and left to consume a previously weighed amount of food for 10 minutes. On completion of this period the food is weighed again to calculate the home cage food consumption.
50, 2 month old female BALB/c mice, 10 mice per group, on ad libitum diet were separated (each mouse in a different cage) for 9 days (Separation Stress, a model for depression). On the 7, 8, 9, 34-40, days mice were administered with either vehicle or compounds x, 12 and 15 (1 mg/kg i.p.) or imipramine 10 mg/kg (antidepressant) i.p. and tested in Novel Suppressed Feeding Test on day 9.
as §5, with “FIGS. 9A-9C show the results of the NSFT. […]” for “Novelty suppressed feeding test (NSFT):”, “hours.” for “hours (water available ad libitum).”, “into” for “into a 50×50×20 (height) cm wooden arena”, “open field test.” for “floor of which is marked with equal rectangles of 10×10 cm.”, “to find” for “elapsing from”, “food was” for “introduction of the animal into the arena until it commences eating (latency to feed) is”

[7] = test system: Norepinephrine (NE) levels; assay: Norepinephrine (NE) determination in brain tissue by HPLC with electrochemical detection; format: in vivo, mice; settings: for NE: ng/g wet tissue +/− SEM; for norepinephrine levels in the hippocampus vs. control / norepinephrine levels in the hypothalamus vs. control: result in words
Description: as §1, §2, §3, §4

[8] = Tail Suspension Test, separated BALB/c mice (model for depression); format: in vivo; settings: compounds 1 mg/kg i.p., imipramine 10 mg/kg i.p.; day 7; in relation to vehicle
Description: Tail suspension test (TST): Animals are suspended upside down by adhesive tape placed 1 cm from the tail tip. The elevation of the animal is 50 cm from the nearest surface. […] Statistical analysis compares the magnitude of immobility (in seconds) between different treatment groups. In this test, antidepressants characteristically cause an increase of the time fraction spent by the animal as active at the expense of the inactivity period.
50, 2 month old female BALB/c mice were separated (each mouse in a different cage) for 9 days period (a model for depression). On days 7, 8, 9, 34-40 mice were administered with either vehicle or compounds X, 12 and 15 (1 mg/kg i.p.) or imipramine 10 mg/kg (anti-depressant) i.p. and tested in the Tail suspension test on day 7 of the experiment (10 mice per group).

CCCCCCCC/C=C\CCCCCCCCOC(=O)N[C@H](CO)C(C)C [Compound 12, Oleyloxycarbonyl-L-Valinol amide]
food consumption [1]: significant decrease | weight (weight loss) [1]: significant weight loss; also recorded: significant decrease | performance in the Eight Arm Maze [2]: significantly improved performance | 5HT (serotonin (5HT) levels; Hippocampus): 332.1 ± 52.7 ng/g | 5HT (serotonin (5HT) levels; Hypothalamus): 810.5 ± 70.6 ng/g | 5HT levels in the hippocampus vs. control (serotonin (5HT) levels): significantly enhanced; also recorded: increased significantly | 5HT levels in the hypothalamus vs. control (serotonin (5HT) levels): increased significantly | neurological score (NSS method) [3]: did not affect neurological score | food consumption [4]: did not change | weight (weight loss) [4]: do not produce weight loss; also recorded: did not change | swimming activity in forced swim test [5]: significantly enhanced swimming activity | food intake in NSFT [6]: significantly enhanced food intake | motor activity in NSFT [6]: enhanced motor activity | NE ([7]; Hippocampus): 378.9 ± 31.4 ng/g | norepinephrine levels in the hippocampus vs. control [7]: significantly enhanced; also recorded: increase significantly

CCCCCCCC/C=C\CCCCCCCCNC(=O)N[C@H](CO)C(C)C [Compound 15, Oleyl-amine-carbonyl-L-valinol]
food consumption [1]: significant decrease | weight (weight loss) [1]: significant weight loss; also recorded: significant decrease | performance in the Eight Arm Maze [2]: significantly improved performance | 5HT (serotonin (5HT) levels; Hippocampus): 396.7 ± 21 ng/g | 5HT (serotonin (5HT) levels; Hypothalamus): 853 ± 78.3 ng/g | 5HT levels in the hippocampus vs. control (serotonin (5HT) levels): increased significantly | 5HT levels in the hippocampus vs. control (serotonin (5HT) levels; listed as compound 15): significantly enhanced | 5HT levels in the hypothalamus vs. control (serotonin (5HT) levels): increased significantly | 5HT levels in the hypothalamus vs. control (serotonin (5HT) levels; listed as compound 15): significantly enhanced | neurological score (NSS method) [3]: did not affect neurological score | activity in Tail Suspension Test [8]: significantly enhanced activity | food consumption [4]: did not change | weight (weight loss) [4]: do not produce weight loss; also recorded: did not change | swimming activity in forced swim test [5]: significantly enhanced swimming activity | food intake in NSFT [6]: significantly enhanced food intake | motor activity in NSFT [6]: enhanced motor activity | NE ([7]; Hippocampus): 373.7 ± 48.1 ng/g | NE ([7]; Hypothalamus): 1234.8 ± 59.8 ng/g | norepinephrine levels in the hippocampus vs. control [7]: increase significantly | norepinephrine levels in the hippocampus vs. control ([7]; listed as compound 15): significantly enhanced | norepinephrine levels in the hypothalamus vs. control [7]: increased significantly | norepinephrine levels in the hypothalamus vs. control ([7]; listed as compound 15): significantly enhanced
